Data reported in PMC11570497 (Nature Plants, 2024).
“Also recorded” adds a separate entry of the source. Each block holds one compound with its values, some of them ahead of it. Where no end group is shown, it is not given here. The star is where a group is joined. Dabcyl = CN(C)c1ccc(N=Nc2ccc(C(=O)*)cc2)cc1; EDANS = O=S(=O)(O)c1cccc2c(NCCN*)cccc12

Legend:
[1] = system: leaf discs of N. benthamiana; type: cell-based, Nicotiana benthamiana; conditions: n = 6
[2] = n = 8
[3] = system: P69B–His; assay: purified P69B–His; conditions: tomato, 21 °C, up to 20 min
[4] = AF of sbt5.2 mutant plants; conditions: Nicotiana benthamiana, 21 °C, up to 20 min
[5] = system: SBT5.2a–His; type: biochemical, Nicotiana benthamiana; conditions: different concentrations of SBT5.2a–His; 100 nM csp22; 45 minutes; read-out ROS burst on six-week-old leaf discs; n = 6
Procedure: Four-week-old N. benthamiana leaves were infiltrated with a 1:1 mixture (final OD600 = 0.5 for each) of A. tumefaciens GV3101 containing the silencing suppressor P19 and pPB097 or pJP008. AF containing SBT5.2a–His or P69B–His was extracted six days after infiltration and purified as previously described[44],[45].
The ROS burst assay was performed as previously described[43] except that L-012 (Wako Chemical) was used instead of luminol and the diameter of leaf discs used here was 4 mm rather than 6 mm. Briefly, after incubation in water overnight, one leaf disc (4 mm in diameter) was added to 100 µl of solution containing 25 ng µl^−1 L-012, 25 ng µl^−1 HRP and specified elicitor treatments. […] After incubation, 25 ng µl^−1 L-012 and 25 ng µl^−1 HRP were added to the AFs. Chemiluminescence was measured immediately with an Infinite M200 plate reader (Tecan) every minute for one hour.

[6] = AF from WT N. benthamiana; conditions: Nicotiana benthamiana, room temperature, up to 60 min

Compound: O=S(=O)(F)Cc1ccccc1 [PMSF]
- block of CspD perception (ROS burst) by subtilase inhibitor [1]: unable to block CspD perception

Compound: DTGTVKWFNTSKGFGFISRDSG [csp22 PSPTO3984]
- speed of inactivation/degradation in AF of WT plants [2]: more quickly degraded than that of CspD

- not cleaved [3]: not cleaved by purified P69B–His
Compound: Dabcyl-VKWFNNAK-{EDANS}
- not cleaved [4]: no longer cleaved in AF of sbt5.2 mutants

Compound: LNGKVKWFNNAKGYGFILEDGK [csp22]
- inactivation of csp22 elicitor activity by purified SBT5.2a–His [5]: dose-dependent inactivation

Compound: MLNGKVKWFNNAKGYGFILEDGKPDEDLFAHYSAIQMDGYKTLKAGQPVRFEIIQGPKGLHAVNIQSSLAKIGEPVKSAHAHTPEHAHA
- cleaved bond [6]: F-N, first_seen, 15 min; also recorded: L-K, first_seen, 15 min

Compound: QTGTVKWFNDEKGFGFITPQSG [csp22 PSPTO4145]
- speed of inactivation/degradation in AF of WT plants [2]: slower than that of CspD
